Measurements from publication PMC8512560, “Design, Synthesis, and Antipoliferative Activities of Novel Substituted Imidazole-Thione Linked Benzotriazole Derivatives” (Molecules, 2021).

Test system: HCT-116 human colon cancer cell line
Assay: MTT viability assay, HCT-116
Type: cell-based
Conditions: Homo sapiens, HCT-116, 72 h, mean ± SD of three independent experiments, read-out: Antiproliferative Activities IC50, HCT-116
Experimental: All the human tumour cell lines MCF-7, HL-60, HCT-116, and HUVEC were cultured in Dulbecco’s Modified Eagle’s Medium (DMEM) with 10% fetal bovine serum, 2 mM L-glutamine and 100 µg/mL penicillin/streptomycin. Cells were maintained at 37 °C in 5% CO2 in a humidified incubator. All cells were sub-cultured three times/week by trypsinization using TrypLE Express (1X).
The Benzotriazole compounds were evaluated for antiproliferative effect using the MTT viability assay of various cancer cell lines (MCF-7, HCT-116 and HL-60) and the normal human umbilical vein endothelial cell line (HUVEC) to calculate the relative IC50 values for each compound. Cells were seeded in triplicate in 96-well plates at a density of 10 × 10^3 cells/mL in a total volume of 200 µL per well. 0.1% of DMSO was used as a vehicle control. After this time, they were treated with 2 µL test compound which had been pre-prepared as stock solutions in ethanol to furnish the concentration range of study, 10 nM to 100 µM, and re-incubated for a further 72 h. The culture medium was then removed, and the cells washed with 100 µL phosphate buffered saline (PBS) and 50 µL MTT added, to reach a final concentration of 1 mg/mL MTT added. Cells were incubated for 2 h in darkness at 37 °C. At this point solubilisation was begun through the addition of […] DMSO and the cells maintained at room temperature in darkness for 20 min to ensure thorough colour diffusion before reading the absorbance. Plates were incubated for 72 h at 37 °C + 5% CO2. The MTT (5 mg/mL in PBS) was added and incubated for another 4 h, and the optical density was detected with a microplate reader at 570 nm. Results were expressed as percentage viability relative to vehicle control (100%). Dose response curves were plotted and IC50 values (concentration of drug resulting in 50% reduction in cell survival) were obtained using the commercial software package Prism (GraphPad Software, Inc., La Jolla, CA, USA). All the experiments were repeated in at least three independent experiments.

**Q.** Which IC50 does the source give for `S=c1[nH]c(-n2nnc3ccccc32)cn1-c1ccc(Cl)cc1Cl` [BI9, 4-(1H-Benzo[d][1,2,3]Triazol-1-yl)-1-(2,4-Dichlorophenyl)-1H-Imidazole-2(3H)-Thione] here?
**A.** The IC50 was 2630 ± 170 nM.
